In experiment [1] the target is T1, purified recombinant human PI3K enzyme δ (Homo sapiens, UniProt O00329).
T1 construct: purchased Invitrogen, USA
The experiment is described as follows: Inhibition of PI3-Kinase enzymatic activity (HTRF enzyme assay), δ. In kind it is biochemical. To be noted: 1 μM compound; PI3K δ 50 ng/well; PIP2 10 μM; ATP 200 μM; read-out: Percentage inhibition of PI3K activity, δ. As for the experimental part: (§1) Inhibition of PI3-Kinase enzymatic activity was determined using a homogeneous time-resolved fluorescence (HTRF) kit from Eurofins. 1 μM of Compounds of present invention were premixed with DMSO. The experiment was initiated by mixing 1.0% DMSO as vehicle/compounds with purified recombinant human PI3K enzyme {δ (50 ng/well); γ (100 ng/well)} (Invitrogen, USA) and substrate (PIP2, 10 μM) in the wells and incubation for 15 min at room temperature. There after ATP was added (δ at 200 μM, and γ at 50 μM) in to the wells containing reaction mixture, followed by re-incubation for 30 minutes at room temperature. Reaction was terminated by addition of a stopping solution and was further incubated for 4 hours at room temperature before reading using Envision multimode reader (Perkin Elmer). Percentage inhibition of PI3K activity was calculated by determining ratio of specific europium 665 nm energy transfer signal to reference 615 nm signals.
(Time-resolved FRET reads energy transfer from a long-lived donor to a nearby acceptor.)

The target in experiment [2] is T2, purified recombinant human PI3K enzyme γ (Homo sapiens, UniProt P48736).
T2 construct: purchased Invitrogen, USA
T2 sequence (P48736 whole entry): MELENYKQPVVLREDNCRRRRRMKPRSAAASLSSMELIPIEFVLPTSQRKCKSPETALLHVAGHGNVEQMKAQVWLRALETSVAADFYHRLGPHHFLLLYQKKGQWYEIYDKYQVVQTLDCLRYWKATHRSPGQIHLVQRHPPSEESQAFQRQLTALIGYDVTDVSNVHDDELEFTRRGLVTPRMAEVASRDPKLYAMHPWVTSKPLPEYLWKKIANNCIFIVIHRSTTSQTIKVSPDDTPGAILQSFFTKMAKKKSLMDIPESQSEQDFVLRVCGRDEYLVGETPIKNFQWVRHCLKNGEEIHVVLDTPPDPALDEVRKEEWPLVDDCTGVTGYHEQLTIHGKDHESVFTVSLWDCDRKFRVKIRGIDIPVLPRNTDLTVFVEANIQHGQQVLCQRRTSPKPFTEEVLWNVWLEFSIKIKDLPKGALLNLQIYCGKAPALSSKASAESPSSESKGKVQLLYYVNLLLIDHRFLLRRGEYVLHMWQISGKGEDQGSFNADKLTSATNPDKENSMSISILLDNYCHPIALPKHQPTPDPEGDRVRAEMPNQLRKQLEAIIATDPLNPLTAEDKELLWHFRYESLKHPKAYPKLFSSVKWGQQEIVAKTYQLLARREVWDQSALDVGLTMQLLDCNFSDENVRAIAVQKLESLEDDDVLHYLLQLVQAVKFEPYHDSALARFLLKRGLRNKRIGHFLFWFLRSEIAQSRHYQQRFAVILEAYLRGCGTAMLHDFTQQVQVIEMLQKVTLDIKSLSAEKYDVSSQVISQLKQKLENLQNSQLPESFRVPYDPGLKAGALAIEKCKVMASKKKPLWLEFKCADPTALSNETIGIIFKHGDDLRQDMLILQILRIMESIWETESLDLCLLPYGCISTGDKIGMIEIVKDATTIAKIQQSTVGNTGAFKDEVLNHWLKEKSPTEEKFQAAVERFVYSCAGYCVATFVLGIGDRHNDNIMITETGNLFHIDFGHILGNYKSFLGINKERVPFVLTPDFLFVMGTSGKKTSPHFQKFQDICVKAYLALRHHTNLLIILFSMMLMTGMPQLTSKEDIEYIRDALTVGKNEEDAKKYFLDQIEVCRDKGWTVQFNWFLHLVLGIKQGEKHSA
Nature of the experiment: Inhibition of PI3-Kinase enzymatic activity (HTRF enzyme assay), γ. In kind it is biochemical. Particulars: 1 μM compound; PI3K γ 100 ng/well; PIP2 10 μM; ATP 50 μM; read-out: Percentage inhibition of PI3K activity, γ. As for the experimental part:
as §1

The record followed here is patent US20190127381A1, “SUBSTITUTED FUSED PYRIMIDINONE COMPOUNDS” (TORRENT PHARMACEUTICALS LIMITED, priority 2016, published 2019).

Structures are written as SMILES.

T1 sequence (O00329 whole entry): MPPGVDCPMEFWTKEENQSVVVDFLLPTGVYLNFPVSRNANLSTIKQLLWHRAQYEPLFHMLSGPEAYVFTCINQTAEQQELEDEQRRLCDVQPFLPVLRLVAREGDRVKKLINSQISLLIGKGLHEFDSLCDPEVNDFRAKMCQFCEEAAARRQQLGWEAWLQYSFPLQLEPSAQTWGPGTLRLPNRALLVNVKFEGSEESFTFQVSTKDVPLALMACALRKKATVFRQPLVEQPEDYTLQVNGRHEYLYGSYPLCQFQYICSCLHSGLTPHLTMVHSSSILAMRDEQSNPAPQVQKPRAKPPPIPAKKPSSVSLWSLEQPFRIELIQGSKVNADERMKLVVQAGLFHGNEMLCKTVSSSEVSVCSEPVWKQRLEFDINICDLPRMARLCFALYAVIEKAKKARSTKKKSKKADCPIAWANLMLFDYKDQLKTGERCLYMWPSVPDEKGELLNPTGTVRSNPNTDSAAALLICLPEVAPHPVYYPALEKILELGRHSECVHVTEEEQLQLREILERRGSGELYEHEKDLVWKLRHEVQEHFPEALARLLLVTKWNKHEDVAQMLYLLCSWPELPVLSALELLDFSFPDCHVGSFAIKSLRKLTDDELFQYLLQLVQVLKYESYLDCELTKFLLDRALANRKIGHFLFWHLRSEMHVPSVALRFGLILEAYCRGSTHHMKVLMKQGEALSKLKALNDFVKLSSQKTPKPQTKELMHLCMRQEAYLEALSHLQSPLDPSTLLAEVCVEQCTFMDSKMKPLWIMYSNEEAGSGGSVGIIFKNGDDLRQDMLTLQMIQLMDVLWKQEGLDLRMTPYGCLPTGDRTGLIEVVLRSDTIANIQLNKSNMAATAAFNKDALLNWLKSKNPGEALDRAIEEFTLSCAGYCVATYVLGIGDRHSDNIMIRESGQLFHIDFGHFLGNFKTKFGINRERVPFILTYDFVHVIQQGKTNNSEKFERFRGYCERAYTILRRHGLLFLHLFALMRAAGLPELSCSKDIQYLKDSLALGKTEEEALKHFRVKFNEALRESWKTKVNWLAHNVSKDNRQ
T1 sequence (P27986 whole entry partner): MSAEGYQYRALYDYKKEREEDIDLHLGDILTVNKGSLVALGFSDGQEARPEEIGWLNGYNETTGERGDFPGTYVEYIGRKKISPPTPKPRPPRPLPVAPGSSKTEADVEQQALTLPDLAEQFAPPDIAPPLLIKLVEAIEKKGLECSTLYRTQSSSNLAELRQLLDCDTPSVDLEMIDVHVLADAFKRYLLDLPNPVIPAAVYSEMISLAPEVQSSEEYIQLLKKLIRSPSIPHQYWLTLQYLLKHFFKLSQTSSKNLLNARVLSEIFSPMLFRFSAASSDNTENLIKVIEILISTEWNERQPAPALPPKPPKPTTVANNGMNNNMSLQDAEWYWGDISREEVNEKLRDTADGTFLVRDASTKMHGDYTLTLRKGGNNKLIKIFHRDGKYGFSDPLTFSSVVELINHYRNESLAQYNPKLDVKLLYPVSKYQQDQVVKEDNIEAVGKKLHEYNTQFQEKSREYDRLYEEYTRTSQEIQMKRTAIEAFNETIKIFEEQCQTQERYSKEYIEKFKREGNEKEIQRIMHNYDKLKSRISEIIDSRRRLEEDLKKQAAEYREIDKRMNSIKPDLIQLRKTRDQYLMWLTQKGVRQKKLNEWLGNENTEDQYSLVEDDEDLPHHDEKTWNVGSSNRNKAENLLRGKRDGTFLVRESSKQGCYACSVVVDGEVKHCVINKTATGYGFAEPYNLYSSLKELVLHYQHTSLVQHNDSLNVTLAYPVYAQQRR

As usually defined, the inhibition is the percentage by which the read-out fell short of the control. Turning to `CC1(C)Cc2c(-c3nn(Cc4nc5cccc(-c6ccncc6)c5c(=O)n4-n4cccc4)c4ncnc(N)c34)ccc(O)c2O1` [compound 18, 2-{[4-amino-3-(7-hydroxy-2,2-dimethyl-2,3-dihydro-1-benzofuran-4-yl)-1H-pyrazolo[3,4-d]pyrimidin-1-yl]methyl}-5-(pyridin-4-yl)-3-(1H-pyrrol-1-yl)quinazolin-4(3H)-one], the inhibition at 1 µM was in the range of 80 to 100% in experiment [1] and 60 to 80% in experiment [2].
In the case of `Cc1ccc(C2(n3c(Cn4nc(-c5ccc(O)c6c5CC(C)(C)O6)c5c(N)ncnc54)nc4cccc(-c5ccnn5C)c4c3=O)CC2)cc1` [compound 40, 2-{[4-amino-3-(7-hydroxy-2,2-dimethyl-2,3-dihydro-1-benzofuran-4-yl)-1H-pyrazolo[3,4-d]pyrimidin-1-yl]methyl}-3-[1-(4-methylphenyl)cyclopropyl]-5-(1-methyl-1H-pyrazol-5-yl)quinazolin-4(3H)-one], the inhibition at 1 µM in experiment [1] fell in the range of 80 to 100%; in experiment [2], 60 to 80%.
The like results for `Cc1ccc(C)n1-n1c(Cn2nc(-c3ccc(O)c4c3CCC4)c3c(N)ncnc32)nc2cccc(-c3cnn(C)c3)c2c1=O` [compound 93, 2-{[4-amino-3-(7-hydroxy-2,3-dihydro-1H-inden-4-yl)-1H-pyrazolo[3,4-d]pyrimidin-1-yl]methyl}-3-(2,5-dimethyl-1H-pyrrol-1-yl)-5-(1-methyl-1H-pyrazol-4-yl)quinazolin-4(3H)-one] were, in that order, 80 to 100% and 80 to 100%.
The like results for `CC1(C)Cc2c(-c3nn(Cc4nc5cccc(Cl)c5c(=O)n4C4(c5ccccc5)CC4)c4ncnc(N)c34)ccc(O)c2O1` [compound 5, 2-{[4-amino-3-(7-hydroxy-2,2-dimethyl-2,3-dihydro-1-benzofuran-4-yl)-1H-pyrazolo[3,4-d]pyrimidin-1-yl]methyl}-5-chloro-3-(1-phenylcyclopropyl)quinazolin-4(3H)-one] were, in that order, 80 to 100% and 80 to 100%.
The like results for `CC(=O)NCC#Cc1cccc2nc(Cn3nc(-c4ccc(O)c5c4CC(C)(C)O5)c4c(N)ncnc43)n(-n3cccc3)c(=O)c12` [compound 28, N-{3-[2-{[4-amino-3-(7-hydroxy-2,2-dimethyl-2,3-dihydro-1-benzofuran-4-yl)-1H-pyrazolo[3,4-d]pyrimidin-1-yl]methyl}-4-oxo-3-(1H-pyrrol-1-yl)-3,4-dihydroquinazolin-5-yl]prop-2-yn-1-yl}acetamide] were, in that order, 80 to 100% and 80 to 100%.
`CC1(C)Cc2c(-c3nn(Cc4nc5cccc(F)c5c(=O)n4C4(c5ccccc5)CC4)c4ncnc(N)c34)ccc(O)c2O1` [compound 26, 2-{[4-amino-3-(7-hydroxy-2,2-dimethyl-2,3-dihydro-1-benzofuran-4-yl)-1H-pyrazolo[3,4-d]pyrimidin-1-yl]methyl}-5-fluoro-3-(1-phenylcyclopropyl)quinazolin-4(3H)-one]: the inhibition at 1 µM in experiment [1] lay in the range of 80 to 100%; in experiment [2], 40 to 60%.
For `CC1(C)Cc2c(-c3nn(Cc4nc5cccc(-c6ccsc6)c5c(=O)n4-n4cccc4)c4ncnc(N)c34)ccc(O)c2O1` [compound 14, 2-{[4-amino-3-(7-hydroxy-2,2-dimethyl-2,3-dihydro-1-benzofuran-4-yl)-1H-pyrazolo[3,4-d]pyrimidin-1-yl]methyl}-3-(1H-pyrrol-1-yl)-5-(thiophen-3-yl)quinazolin-4(3H)-one], in that order: 80 to 100% and 80 to 100%.
For `CC1(C)Cc2c(-c3nn(Cc4nc5cccc(-c6ccncc6)c5c(=O)n4C4(c5ccccc5)CC4)c4ncnc(N)c34)ccc(O)c2O1` [compound 21, 2-{[4-amino-3-(7-hydroxy-2,2-dimethyl-2,3-dihydro-1-benzofuran-4-yl)-1H-pyrazolo[3,4-d]pyrimidin-1-yl]methyl}-3-(1-phenylcyclopropyl)-5-(pyridin-4-yl)quinazolin-4(3H)-one], in that order: 80 to 100% and 60 to 80%.
`CC1(C)Cc2c(-c3nn(Cc4nc5cccc(C#CCO)c5c(=O)n4-n4cccc4)c4ncnc(N)c34)ccc(O)c2O1` [compound 19, 2-{[4-amino-3-(7-hydroxy-2,2-dimethyl-2,3-dihydro-1-benzofuran-4-yl)-1H-pyrazolo[3,4-d]pyrimidin-1-yl]methyl}-5-(3-hydroxyprop-1-yn-1-yl)-3-(1H-pyrrol-1-yl)quinazolin-4(3H)-one]: the inhibition at 1 µM in experiment [1] and in experiment [2] was 80 to 100% in each case.
Regarding `Cc1cccc2nc(Cn3nc(-c4ccc(O)c5c4CC(C)(C)O5)c4c(N)ncnc43)n(-n3cccc3)c(=O)c12` [Compound No. 2, 2-{[4-amino-3-(7-hydroxy-2,2-dimethyl-2,3-dihydro-1-benzofuran-4-yl)-1H-pyrazolo[3,4-d]pyrimidin-1-yl]methyl}-5-methyl-3-(1H-pyrrol-1-yl)quinazolin-4(3H)-one], the inhibition at 1 µM in experiment [1] and in experiment [2] was 80 to 100% each time.
Take `CC1(C)Cc2c(-c3nn(Cc4nc5cccc(C#CCN6CCOCC6)c5c(=O)n4-n4cccc4)c4ncnc(N)c34)ccc(O)c2O1` [compound 35, 2-{[4-amino-3-(7-hydroxy-2,2-dimethyl-2,3-dihydro-1-benzofuran-4-yl)-1H-pyrazolo[3,4-d]pyrimidin-1-yl]methyl}-5-[3-(morpholin-4-yl)prop-1-yn-1-yl]-3-(1H-pyrrol-1-yl)quinazolin-4(3H)-one]: the figures for the inhibition at 1 µM in experiment [1] and in experiment [2] were 80 to 100% and 60 to 80%, respectively.
The like results for `Cc1cccc(C2(n3c(Cn4nc(-c5ccc(O)c6c5CC(C)(C)O6)c5c(N)ncnc54)nc4cccc(C#CCO)c4c3=O)CC2)c1` [compound 31, 2-{[4-amino-3-(7-hydroxy-2,2-dimethyl-2,3-dihydro-1-benzofuran-4-yl)-1H-pyrazolo[3,4-d]pyrimidin-1-yl]methyl}-5-(3-hydroxyprop-1-yn-1-yl)-3-[1-(3-methylphenyl)cyclopropyl]quinazolin-4(3H)-one] were, in that order, 80 to 100% and 60 to 80%.
As for `COc1ccc(-c2nn(Cc3nc4cccc(C)c4c(=O)n3-n3cccc3)c3ncnc(N)c23)c2c1OC(C)(C)C2` [compound 84, 2-{[4-amino-3-(7-methoxy-2,2-dimethyl-2,3-dihydro-1-benzofuran-4-yl)-1H-pyrazolo[3,4-d]pyrimidin-1-yl]methyl}-5-methyl-3-(1H-pyrrol-1-yl)quinazolin-4(3H)-one], the figures for the inhibition at 1 µM in experiment [1] and in experiment [2] were 80 to 100% and 60 to 80%, respectively.
The like results for `Cc1cccc2nc([C@H](C)n3nc(-c4ccc(O)c5c4CC(C)(C)O5)c4c(N)ncnc43)n(-n3c(C)ccc3C)c(=O)c12` [compound 95, 2-{(1S)-1-[4-amino-3-(7-hydroxy-2,2-dimethyl-2,3-dihydro-1-benzofuran-4-yl)-1H-pyrazolo[3,4-d]pyrimidin-1-yl]ethyl}-3-(2,5-dimethyl-1H-pyrrol-1-yl)-5-methylquinazolin-4(3H)-one] were, in that order, 80 to 100% and 80 to 100%.
For `CC1(C)Cc2c(-c3nn(Cc4nc5cccc(C#CC6CC6)c5c(=O)n4-n4cccc4)c4ncnc(N)c34)ccc(O)c2O1` [compound 48, 2-{[4-amino-3-(7-hydroxy-2,2-dimethyl-2,3-dihydro-1-benzofuran-4-yl)-1H-pyrazolo[3,4-d]pyrimidin-1-yl]methyl}-5-(cyclopropylethynyl)-3-(1H-pyrrol-1-yl)quinazolin-4(3H)-one], in that order: 80 to 100% and 80 to 100%.
For `CCn1cc(-c2cccc3nc(Cn4nc(-c5ccc(O)c6c5CCC6)c5c(N)ncnc54)n(-n4c(C)ccc4C)c(=O)c23)cn1` [compound 94, 2-{[4-amino-3-(7-hydroxy-2,3-dihydro-1H-inden-4-yl)-1H-pyrazolo[3,4-d]pyrimidin-1-yl]methyl}-3-(2,5-dimethyl-1H-pyrrol-1-yl)-5-(1-ethyl-1H-pyrazol-4-yl)quinazolin-4(3H)-one], in that order: 80 to 100% and 80 to 100%.
As to `C#Cc1cccc2nc(Cn3nc(-c4ccc(O)c5c4CC(C)(C)O5)c4c(N)ncnc43)n(-n3cccc3)c(=O)c12` [compound 20, 2-{[4-amino-3-(7-hydroxy-2,2-dimethyl-2,3-dihydro-1-benzofuran-4-yl)-1H-pyrazolo[3,4-d]pyrimidin-1-yl]methyl}-5-ethynyl-3-(1H-pyrrol-1-yl)quinazolin-4(3H)-one], the inhibition at 1 µM in experiment [1] and in experiment [2] was 80 to 100% throughout.
On to `Cc1ccc(C)n1-n1c(Cn2nc(-c3ccc(O)c4c3CC(C)(C)O4)c3c(N)ncnc32)nc2cccc(-c3cccn3C)c2c1=O` [compound 77, 2-{[4-amino-3-(7-hydroxy-2,2-dimethyl-2,3-dihydro-1-benzofuran-4-yl)-1H-pyrazolo[3,4-d]pyrimidin-1-yl]methyl}-3-(2,5-dimethyl-1H-pyrrol-1-yl)-5-(1-methyl-1H-pyrrol-2-yl)quinazolin-4(3H)-one], for which the inhibition at 1 µM in experiment [1] and in experiment [2] was 80 to 100% in each case.
